Reference: US5780441A, “Sphingoglycolipid compounds and therapeutic uses thereof” (Kirin Beer Kabushiki Kaisha, priority 1993, dated 1998)

Key:
[1] = tested on: mouse splenic lymphocytes; experiment: Influence of Polysorbate on immunostimulating effect (3H-TdR uptake into mouse splenic lymphocytes); format: cell-based, mouse (BDF1 female); conditions: for 3H-TdR uptake: 10% PS20 stock (compound 1 mg/ml), mean of 3 wells
Description: Experiment was performed with BDF1 female mice (6 weeks old) purchased from NIPPON SLC K.K. Spleens were removed from mice, and spleen cells were brayed with slide glasses and hemolized with NH4 Cl. 2×10^6cells/ml of the spleen cells which had been hemolized were suspended in 10% FCS RPMI 1640. The cell suspension (100 μl/well) and a vehicle or sample (10 μl/well) which was prepared so as to have a final level shown in Table 3 were added into wells of a round-bottomed 96 well plate, and cultured under the condition of 5% CO2 at 37° C. for 2 days. 0.5 μCi/well of ^3 H-thymidine (^3 H-TdR) was added. After 6 hours, the cells were harvested, and the amount of ^3 H-TdR uptaken into nucleus was measured by a liquid scintillation counter. The ratio (%) of the uptake of ^3 H-TdR in the sample group to that in the vehicle group was calculated and used as the in vitro mouse splenic lymphocyte-proliferation-stimulating rate.
A sample of a solution of 1 mg of Compound 33 prepared in Experimental Example 8 in 1 ml of 10% or 0.1% Polysorbate 20, a sample of a solution of 1 mg of Compound b in 1 ml of 10% Polysorbate 20, or 10% and 0.1% Polysorbate 20, were prepared by subjecting to aseptic filtration followed by sequential 10 time dilution with PBS as shown in Table 5 in order to carry out the experiment described in Experimental Example 6.
In this connection, 1 mg of Compound b was insoluble in 0.1% Polysorbate, and thus no experiment was conducted.

mouse bone marrow cells = experiment: In vitro mouse bone marrow cell-proliferation-promoting effect (3H-TdR uptake); format: cell-based, mouse (BDF1 female); conditions: 4 days; for activity at 0.1 µg/mL / activity at 0.01 µg/mL: Mus musculus, Bone marrow cell, 96 h, read-out: Uptake of 3H-TdR (% of control), bone marrow cells
Outline: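 Femoral bone marrow monocytes from 6-week female BDF1 mice (Lympholite M fraction, 1×10^6 cells/ml in 10% FCS RPMI 1640) cultured with sample for 4 days at 37 °C, 5% CO2. 3H-TdR (0.5 μCi/well) added for final 6 h; uptake ratio versus vehicle reported as activation rate.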

[2] = Solubility in water in aqueous Polysorbate 20 solutions; format: physicochemical
Description: Compounds a and b comprising a monosaccharide as a constituent sugar which are disclosed in WO 93/05055 were synthesized as above. A 1 mg of each of the present compounds 4, 31 and 33 and Compound a and b was dissolved in 1 ml of an aqueous Polysorbate 20 solution in a variety of concentrations in order to observe visually the property.

[3] = tested on: P388 mouse leukemia cells; experiment: Life-span-prolonging (anti-tumor) effect on mice subcutaneously inoculated with P388 mouse leukemia cells; format: in vivo, mouse (CDF1 female); conditions: for Survival days ave. ± s. d. / response vs control in vivo at 0.1 mg/kg / T/C (%): 0.1 mg/kg i.v. on days 1, 5 and 9; for Survival days ave. ± s. d.: all marked ** (p < 0.01); for response vs control in vivo at 0.1 mg/kg: Mus musculus, P388, iv, read-out: T/C (%); for response vs control in vivo at 0.1 mg/kg / T/C (%): survival vs vehicle
Outline: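 CDF1 female mice (6 weeks), 5 per group, inoculated subcutaneously with P388 leukemia cells; life-span prolongation assessed. Lentinan and picibanil given intravenously on days 1, 3, 5, 7 and 9 after implantation; sizofilan given subcutaneously on days 1 through 9. Statistics by Mann-Whitney test.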

[4] = tested on: mixed lymphocyte culture reaction (spleen cells of C57BL/6 and BALB/C mice); experiment: Mixed lymphocyte culture reaction (MLR); format: cell-based, mouse (C57BL/6 stimulator, BALB/C responder); conditions: 42 hours
Outline: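 Mouse one-way MLR: mitomycin C-treated (50 μg/ml, 30 min) C57BL/6 spleen cells stimulated BALB/C responder spleen cells, 2×10^6 cells/ml each, cultured 42 h at 37 °C with sample. ³H-thymidine (0.5 μCi/well) incorporation over a further 8 h gave MLR activating rate as % of vehicle uptake.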

mouse splenic lymphocyte = experiment: In vitro mouse splenic lymphocyte-proliferation-stimulating effect (3H-TdR uptake); format: cell-based, mouse (BDF1 female); conditions: 2 days
Outline: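 Spleen cells from 6-week-old female BDF1 mice, 2×10^6 cells/ml in 10% FCS RPMI 1640, cultured with vehicle or sample 2 days at 37° C, 5% CO2. ^3H-TdR (0.5 μCi/well) uptake over 6 h by scintillation counting, expressed as % of vehicle.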

B16 mouse melanoma cells = experiment: Tumor growth inhibition in mice subcutaneously inoculated with B16 mouse melanoma cells; format: in vivo, mouse (BDF1 female); conditions: 0.1 mg/kg i.v. days 1, 5, 9; maximum during 20 days
Description: ii) Anti-tumor effect of the compound according to the present invention on mice subcutaneously inoculated with B16 mouse melanoma cells.
Experiment was performed with BDF1 female mice (6 weeks) purchased from NIPPON SLC K.K., which were divided into groups consisting of 6 animals. […]. The subcutaneous tumor volumes [(length×width×height)/2] were measured on days 8, 12, 16 and 20 after implantation to determine the tumor growth inhibiting rate (TGIR) of each sample. TGIR was calculated from the following formula: […]
wherein C: tumor volume in the control group, and
T: tumor volume in the sample adminitered groups.
In this connection, Compounds 1-6 and 7-9 were tested in the same time, respectively.

lethally irradiated mice = experiment: Radioprotective effect: life-span prolongation of lethally irradiated mice; format: in vivo, mouse (BDF1 female); conditions: 0.1 mg/kg i.v. days 0, 4, 8, 9 Gy X-ray, groups of 10
Description: Life-span-prolonging effects of the present compounds on lethally irradiated mice.
Experiment was performed with BDF1 female mice (6 weeks old) purchased from NIPPON SLC K.K., which were divided into groups consisting of 10 animals. Mice were irradiated generally with 9 Gy of X-ray with an X-ray generating apparatus, Hitachi, MBR-1520R (radiation day: day 0). Samples at a dose of 0.1 mg/kg were administered into tail vein on days 0, 4 and 8 in order to observe the mortality of the animals for 40 days.
In the table, two experiments are separated by the broken line.

## CCCCCCCCCCCCCCCCCCCCCCCCCC(=O)N[C@@H](CO[C@H]1O[C@H](CO)[C@H](O)[C@H](O)[C@H]1O)[C@H](O)[C@H](O)CCCCCCCCCCCCCC [Compound b, (2S,3S,4R)-1-(α-D-galactopyranosyloxy)-2-hexacosanoylamino-3,4-octadecanediol, reference compound]
[1]; 10 μg/ml (0.1% Polysorbate 20) and 1 μg/ml (0.01%) vs 0.1 μg/ml (0.001%)
  3H-TdR uptake in words, compound with Polysorbate 20: suppressed
[1]; dilution 10^2
  3H-TdR uptake: 201 cpm
[1]; dilution 10^3
  3H-TdR uptake: 18300 cpm
[1]; dilution 10^4
  3H-TdR uptake: 24439 cpm
[1]; dilution 10^5
  3H-TdR uptake: 25555 cpm
Mouse bone marrow cells; 10^-1 μg/ml
  activity at 0.1 µg/mL: 381%
Mouse bone marrow cells; 10^-2 μg/ml
  activity at 0.01 µg/mL: 438%
[2]; 1 mg in 0.1% Polysorbate
  solubility in Polysorbate, in words: insoluble
[3]
  Survival days ave. ± s. d.: 15.6 ± 0.5 days
  response vs control in vivo at 0.1 mg/kg: 122%

## O-(N-acetyl-2-amino-2-deoxy-α-D-galactopyranosyl)-(1→3)-O-[α-D-glucopyranosyl-(1→2)]-O-α-D-galactopyranosyl-(1→1)-(2S,3S,4R)-2-amino-N-[(R)-2-hydroxytetracosanoyl]-16-methyl-1,3,4-octadecanetriol [Compound 9]
[4]; 1 × 10^0 μg/ml
  MLR activating rate (%): 247%
[4]; 1 × 10^-1 μg/ml
  MLR activating rate (%): 205%
Mouse splenic lymphocyte; 10^0 μg/ml
  Uptake of 3H-TdR (% of control), splenic lymphocytes: 902 % of control
Mouse splenic lymphocyte; 10^-1 μg/ml
  Uptake of 3H-TdR (% of control), splenic lymphocytes: 924 % of control
Mouse splenic lymphocyte; 10^-3 μg/ml
  Uptake of 3H-TdR (% of control), splenic lymphocytes: 513 % of control
Mouse bone marrow cells; 10^-1 μg/ml
  Uptake of 3H-TdR (% of control), bone marrow cells: 286 % of control
Mouse bone marrow cells; 10^-2 μg/ml
  Uptake of 3H-TdR (% of control), bone marrow cells: 91 % of control
B16 mouse melanoma cells
  Maximum tumor growth inhibiting rate, TGIR (%): 74.8%
[3]
  Survival days ave. ± s. d.: 16.4 ± 1.8 days
  T/C (%): 128%
Lethally irradiated mice; day 10
  Number of surviving mice: 10 mice
Lethally irradiated mice; day 15
  Number of surviving mice: 8 mice
Lethally irradiated mice; day 20
  Number of surviving mice: 5 mice
Lethally irradiated mice; day 25
  Number of surviving mice: 3 mice
Lethally irradiated mice; day 30
  Number of surviving mice: 3 mice
Lethally irradiated mice; day 35
  Number of surviving mice: 3 mice
Lethally irradiated mice; day 40
  Number of surviving mice: 3 mice

## CCCCCCCCCCCCCCCCCCCCCCCCCC(=O)N[C@@H](CO[C@H]1O[C@H](CO[C@H]2O[C@H](CO)[C@H](O)[C@H](O)[C@H]2O)[C@@H](O)[C@H](O)[C@H]1O)[C@H](O)[C@H](O)CCCCCCCCCCCCCC [Compound 31, O-α-D-galactopyranosyl-(1→6)-O-α-D-glucopyranosyl-(1→1)-(2S,3S,4R)-2-amino-N-hexacosanoyl-1,3,4-octadecanetriol]
[4]; Mus musculus, Lymphocyte, 1 × 10^0 μg/ml, read-out: MLR activating rate (%)
  activity at 1 µg/mL: 206%
[4]; Mus musculus, Lymphocyte, 1 × 10^-1 μg/ml, read-out: MLR activating rate (%)
  activity at 0.1 µg/mL: 196%
Mouse splenic lymphocyte; Mus musculus, Splenic lymphocyte, 48 h, 10^0 μg/ml, read-out: Uptake of 3H-TdR (% of control), splenic lymphocytes
  activity at 1 µg/mL: 615%
Mouse splenic lymphocyte; Mus musculus, Splenic lymphocyte, 48 h, 10^-3 μg/ml, read-out: Uptake of 3H-TdR (% of control), splenic lymphocytes
  activity at 0.001 µg/mL: 744%
Mouse bone marrow cells; 10^-1 μg/ml
  activity at 0.1 µg/mL: 296%
Mouse bone marrow cells; 10^-2 μg/ml
  activity at 0.01 µg/mL: 594%
[2]; vs Compound b
  amount of Polysorbate 20 required for dissolving, relative to that required for Compound b: 1/100
[3]
  Survival days ave. ± s. d.: 14.6 ± 0.5 days
  response vs control in vivo at 0.1 mg/kg: 114%
[3]; P388 s.c. system
  life-span-prolonging effect (anti-tumor effect), in words: intensive anti-tumor effects almost in the same level as that of Compound b

## CCCCCCCCCCCCCCCCCCCCCC[C@@H](O)C(=O)N[C@@H](CO[C@H]1O[C@H](CO)[C@H](O)[C@H](O[C@H]2O[C@H](CO)[C@H](O)[C@H](O)[C@H]2NC(C)=O)[C@H]1O[C@H]1O[C@H](CO)[C@@H](O)[C@H](O)[C@H]1O)[C@H](O)[C@H](O)CCCCCCCCCCCC(C)C [Compound 5, O-(N-acetyl-2-amino-2-deoxy-α-D-galactopyranosyl)-(1→3)-O-[α-D-glucopyranosyl-(1→2)]-O-α-D-galactopyranosyl-(1→1)-(2S,3S,4R)-2-amino-N-[(R)-2-hydroxytetracosanoyl]-16-methyl-1,3,4-heptadecanetriol]
[4]; 1 × 10^0 μg/ml, 2520 min
  MLR activating rate (%): 189%
[4]; 1 × 10^-1 μg/ml, 2520 min
  MLR activating rate (%): 176%
Mouse splenic lymphocyte; 10^0 μg/ml, 2880 min
  Uptake of 3H-TdR (% of control), splenic lymphocytes: 889 % of control
Mouse splenic lymphocyte; 10^-1 μg/ml, 2880 min
  Uptake of 3H-TdR (% of control), splenic lymphocytes: 764 % of control
Mouse splenic lymphocyte; 10^-2 μg/ml, 2880 min
  Uptake of 3H-TdR (% of control), splenic lymphocytes: 612 % of control
Mouse splenic lymphocyte; 10^-3 μg/ml, 2880 min
  Uptake of 3H-TdR (% of control), splenic lymphocytes: 592 % of control
Mouse bone marrow cells; 10^-1 μg/ml, 5760 min
  Uptake of 3H-TdR (% of control), bone marrow cells: 330 % of control
Mouse bone marrow cells; 10^-2 μg/ml, 5760 min
  Uptake of 3H-TdR (% of control), bone marrow cells: 283 % of control
B16 mouse melanoma cells
  Maximum tumor growth inhibiting rate, TGIR (%): 86.8%
[3]
  Survival days ave. ± s. d.: 15.2 ± 1.1 days
  T/C (%): 119%
Lethally irradiated mice; day 10
  Number of surviving mice: 10 mice
Lethally irradiated mice; day 15, 0.1 mg/kg
  Number of surviving mice: 8 mice
Lethally irradiated mice; day 20, 0.1 mg/kg
  Number of surviving mice: 7 mice
Lethally irradiated mice; day 25, 0.1 mg/kg
  Number of surviving mice: 7 mice
Lethally irradiated mice; day 30, 0.1 mg/kg
  Number of surviving mice: 7 mice
Lethally irradiated mice; day 35, 0.1 mg/kg
  Number of surviving mice: 7 mice
Lethally irradiated mice; day 40, 0.1 mg/kg
  Number of surviving mice: 7 mice
